Molecules are shown by their SMILES. Numbered stars: 1 amine (or outer) side, 2 acyl side, 3 side chain; on linkers, the order of the positions; unused ones are H or OH. Bridge positions count the residues as written; N and C are the ends. Square brackets hold non-standard residues; d marks the D form. Peptide text beside a SMILES is read from it. * marks the point of attachment. ξ: configuration not given here. X2 = CC(C)C[C@H](N[*:1])C(=O)C[C@H](C(=O)[*:2])C(C)C; Phe(4-COOH) = N[C@@H](Cc1ccc(C(=O)O)cc1)C(=O)O; Bip = N[C@@H](Cc1ccc(-c2ccccc2)cc1)C(=O)O; Phe(3-Me) = Cc1cccc(C[C@H](N)C(=O)O)c1; Phe(4-F) = N[C@@H](Cc1ccc(F)cc1)C(=O)O; γGlu = O=C(O)[C@H](CCC(=O)[*:2])N[*:1]; 1Nal = N[C@@H](Cc1cccc2ccccc12)C(=O)O; Val(3-F) = CC(C)(F)[C@H](N)C(=O)O; 4Pal = N[C@@H](Cc1ccncc1)C(=O)O; 3Thi = N[C@@H](Cc1ccsc1)C(=O)O; Cha = N[C@@H](CC1CCCCC1)C(=O)O; Cit = NC(=O)NCCC[C@H](N)C(=O)O; Ile(3ξ) = CCC(C)[C@H](N)C(=O)O; Thr(3ξ) = CC(O)[C@H](N)C(=O)O; Ahp(2) = CCCCC[C@H](N)C(=O)O; 12Ado = NCCCCCCCCCCCC(=O)O; dDab = NCC[C@@H](N)C(=O)O; Carboxymethyl = O=C(O)C*; Orn = NCCC[C@H](N)C(=O)O; dDap = NC[C@@H](N)C(=O)O; Aun = NCCCCCCCCCCC(=O)O; Dab = NCC[C@H](N)C(=O)O; Dap = NC[C@H](N)C(=O)O; AEEA = NCCOCCOCC(=O)O; ξC = NC(CS)C(=O)O

For this assay, the target named is T1, PD-1/PD-L1 interaction (PE-labeled human PD-L1-Ig binding to Jurkat cell line over-expressing human PD-1) (Homo sapiens, UniProt Q15116).
T1 construct: expressed in transfected cells; host or cells: Jurkat
T1 sequence (Q15116 25-288): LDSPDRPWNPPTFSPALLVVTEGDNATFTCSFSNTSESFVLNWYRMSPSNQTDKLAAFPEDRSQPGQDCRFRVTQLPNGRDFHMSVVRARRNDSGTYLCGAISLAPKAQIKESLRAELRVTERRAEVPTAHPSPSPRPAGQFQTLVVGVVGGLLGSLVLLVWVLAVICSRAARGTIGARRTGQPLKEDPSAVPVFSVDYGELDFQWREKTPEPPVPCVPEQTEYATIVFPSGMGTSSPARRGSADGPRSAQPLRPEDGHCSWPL
The assay can be described thus: Jurkat-PD-1 Cell Binding High-Content Screening Assay (CBA). The assay is classed as cell-based. The following applies: Jurkat cell line over-expressing human PD-1; PE-labeled PD-L1-Ig 20 nM final; read-out: Jurkat hPD1-PDL1 IC50. Summed up:
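First, compound is added to PD-1-expressing Jurkat cells in serum-containing DMEM and left 2 h at 37° C. Next, PE-conjugated PD-L1-Ig is introduced at 20 nM final concentration for 1 hour. Finally, cells are fixed in 4% paraformaldehyde with Hoechst 33342, washed and imaged.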
A word on the IC50: it is the concentration that inhibits the measured activity by half. Take `Cc1cccc(C[C@@H]2NC(=O)[C@H](CC(=O)O)NC(=O)[C@H](Cc3ccc(OCC(=O)O)cc3)NC(=O)[C@H](CN)NC(=O)CSC[C@@H](C(=O)N[C@@H](CCC(=O)NCCOCCOCC(=O)NCCCCCCCCCCC(=O)O)C(=O)O)NC(=O)[C@H]([C@@H](C)O)NC(=O)[C@H](C(C)C)NC(=O)[C@H](CC3CCCCC3)NC(=O)[C@H](CCN)NC(=O)[C@@H](CC(C)C)NC(=O)[C@H](CCCN)NC(=O)[C@H](CCCNC(N)=O)NC(=O)[C@H](Cc3ccc(-c4ccccc4)cc3)NC(=O)[C@H](C(C)C)NC2=O)c1` [Compound 1034] ({CH2CO}-[Dap]Y(Carboxymethyl)D[Phe(3-Me)]V[Bip][Cit][Orn][dL][Dab][Cha]VTC[γGlu][AEEA][Aun]-OH; thioether N-14): the IC50 amounted to 6.6 nM.

For the compound `CCCCC[C@@H]1NC(=O)[C@H](CCN)NC(=O)[C@@H](CC(C)C)NC(=O)[C@H](CCCN)NC(=O)[C@H](Cc2ccc(OCC(=O)O)cc2)NC(=O)[C@H](Cc2ccc(-c3ccccc3)cc2)NC(=O)[C@H](Cc2ccc(C(=O)O)cc2)NC(=O)[C@H](Cc2cccc(C)c2)NC(=O)[C@H](CC(=O)O)NC(=O)[C@H](Cc2ccc(OCC(=O)O)cc2)NC(=O)[C@H](CN)NC(=O)CSC[C@@H](C(=O)N[C@@H](CCN)C(=O)NCCOCCOCC(=O)NCCCCCCCCCCC(=O)O)NC(=O)[C@H](CCC(=O)O)NC(=O)[C@H](C(C)C)NC1=O` [Compound 1275] ({CH2CO}-[Dap]Y(Carboxymethyl)D[Phe(3-Me)][Phe(4-COOH)][Bip]Y(Carboxymethyl)[Orn][dL][Dab][Ahp(2)]VEC[Dab][AEEA][Aun]-OH; thioether N-14), the half-maximal inhibitory concentration (IC50) came to 47.5 nM.

On to `CC(C)C[C@H]1NC(=O)[C@H](CCCN)NC(=O)[C@H](Cc2ccc(O)cc2)NC(=O)[C@H](Cc2ccc(-c3ccccc3)cc2)NC(=O)[C@H](Cc2ccc(O)cc2)NC(=O)[C@H](Cc2c[nH]c3ccccc23)NC(=O)[C@H](CC(=O)O)NC(=O)[C@H](Cc2ccc(OCC(=O)O)cc2)NC(=O)[C@H](C(C)O)NC(=O)CSC[C@@H](C(=O)N[C@@H](CCN)C(=O)NCCCCCCCCCCC(=O)O)NC(=O)[C@H](CN)NC(=O)[C@H](C(C)O)NC(=O)[C@H](CC2CCCCC2)NC(=O)[C@H](CCN)NC1=O` (stereo partly drawn) [Compound 3669] ({CH2CO}-[Thr(3ξ)]Y(Carboxymethyl)DWY[Bip]Y[Orn][dL][Dab][Cha][Thr(3ξ)][Dap]C[Dab][Aun]-OH; thioether N-14), for which the IC50 came out at 152 nM.

With `CC(C)C[C@H]1NC(=O)[C@H](CCCN)NC(=O)[C@H](C(C)C)NC(=O)[C@H](Cc2ccc(-c3ccccc3)cc2)NC(=O)[C@H](C(C)C)NC(=O)[C@H](Cc2c[nH]c3ccccc23)NC(=O)[C@H](CC(=O)O)NC(=O)[C@H](Cc2ccc(OCC(=O)O)cc2)NC(=O)[C@H](CN)NC(=O)CSCC(C(=O)N[C@H](CN)C(=O)NCCCCCCCCCCC(=O)O)NC(=O)[C@H]([C@@H](C)O)NC(=O)[C@H](C(C)C)NC(=O)[C@H](CC2CCCCC2)NC(=O)[C@H](Cc2cnc[nH]2)NC1=O` (stereo partly drawn) [Compound 1117] ({CH2CO}-[Dap]Y(Carboxymethyl)DWV[Bip]V[Orn][dL]H[Cha]VT[ξC][dDap][Aun]-OH; thioether N-14), the IC50 was 48.4 nM.

Regarding `CCC(C)[C@@H]1NC(=O)[C@H](Cc2ccc(-c3ccccc3)cc2)NC(=O)[C@H](C(C)C)NC(=O)[C@H](Cc2c[nH]c3ccccc23)NC(=O)[C@H](CC(=O)O)NC(=O)[C@H](Cc2ccc(OCC(=O)O)cc2)NC(=O)[C@H](Cc2ccc(F)cc2)NC(=O)CSC[C@@H](C(=O)N[C@@H](CCN)C(=O)NCCOCCOCC(=O)NCCCCCCCCCCC(=O)O)NC(=O)[C@H](CC(=O)O)NC(=O)[C@H](C(C)O)NC(=O)[C@H](CC2CCCCC2)NC(=O)[C@H](CCN)NC(=O)[C@@H](CC(C)C)NC(=O)[C@H](CCCN)NC1=O` (stereo partly drawn) [Compound 3802] ({CH2CO}-[Phe(4-F)]Y(Carboxymethyl)DWV[Bip][Ile(3ξ)][Orn][dL][Dab][Cha][Thr(3ξ)]DC[Dab][AEEA][Aun]-OH; thioether N-14), the IC50 worked out at 36.6 nM.

Consider `CC(C)C[C@H]1NC(=O)[C@H](CCCN)NC(=O)[C@H](C(C)C)NC(=O)[C@H](Cc2ccc(-c3ccccc3)cc2)NC(=O)[C@H](C(C)C)NC(=O)[C@H](Cc2c[nH]c3ccccc23)NC(=O)[C@H](CC(=O)O)NC(=O)[C@H](Cc2ccc(C(=O)O)cc2)NC(=O)[C@H](Cc2ccc(OCC(=O)O)cc2)NC(=O)CSC[C@@H](C(=O)NCC(=O)NCCOCCOCC(=O)N[C@@H](CCCN)C(=O)NCCCCCCCCCCCC(=O)O)NC(=O)[C@H](CO)NC(=O)[C@H](C(C)C)NC(=O)[C@H](CC2CCCCC2)NC(=O)[C@H](CCN)NC1=O` [Compound 3180] ({CH2CO}-Y(Carboxymethyl)[Phe(4-COOH)]DWV[Bip]V[Orn][dL][Dab][Cha]VSCG[AEEA][Orn][12Ado]-OH; thioether N-14), for which the IC50 was 16.8 nM.

Consider `CC(C)C[C@H]1NC(=O)[C@H](CCN)NC(=O)[C@H](C(C)C)NC(=O)[C@H](Cc2ccc(-c3ccccc3)cc2)NC(=O)[C@H](C(C)C)NC(=O)[C@H](Cc2c[nH]c3ccccc23)NC(=O)[C@H](CC(=O)O)NC(=O)[C@H](Cc2ccc(OCC(=O)O)cc2)NC(=O)[C@H](Cc2ccsc2)NC(=O)CSC[C@@H](C(=O)N[C@@H](CCCN)C(=O)NCCCCCCCCCCC(=O)O)NC(=O)[C@H](C(C)O)NC(=O)[C@H](C(C)C)NC(=O)[C@H](CC2CCCCC2)NC(=O)[C@H](CCN)NC1=O` (stereo partly drawn) [Compound 3281] ({CH2CO}-[3Thi]Y(Carboxymethyl)DWV[Bip]V[Dab][dL][Dab][Cha]V[Thr(3ξ)]C[Orn][Aun]-OH; thioether N-14), for which the IC50 amounted to 98.7 nM.

For `Cc1cccc(C[C@@H]2NC(=O)[C@H](CC(=O)O)NC(=O)[C@H](Cc3ccc(OCC(=O)O)cc3)NC(=O)[C@H](CN)NC(=O)CSC[C@@H](C(=O)N[C@@H](CCC(=O)O)C(=O)NCCCCCCCCCCC(=O)O)NC(=O)[C@H]([C@@H](C)O)NC(=O)[C@H](C(C)C)NC(=O)[C@H](CC3CCCCC3)NC(=O)[C@H](CCN)NC(=O)[C@@H](CC(C)C)NC(=O)[C@H](CCCN)NC(=O)[C@H](CCCNC(N)=O)NC(=O)[C@H](Cc3ccc(-c4ccccc4)cc3)NC(=O)[C@H](C(C)C)NC2=O)c1` [Compound 1027] ({CH2CO}-[Dap]Y(Carboxymethyl)D[Phe(3-Me)]V[Bip][Cit][Orn][dL][Dab][Cha]VTCE[Aun]-OH; thioether N-14), the IC50 turned out to be 17.1 nM.

As to `CC(C)C[C@H]1NC(=O)[C@H](CCCN)NC(=O)[C@H](Cc2ccc(O)cc2)NC(=O)[C@H](Cc2ccc(-c3ccccc3)cc2)NC(=O)[C@H](Cc2ccc(OCC(=O)O)cc2)NC(=O)[C@H](Cc2cccc3ccccc23)NC(=O)[C@H](CC(=O)O)NC(=O)[C@H](Cc2ccc(OCC(=O)O)cc2)NC(=O)[C@H](CN)NC(=O)CSC[C@@H](C(=O)N[C@@H](CCN)C(=O)NCCOCCOCC(=O)NCCCCCCCCCCC(=O)O)NC(=O)[C@H](CCCN)NC(=O)[C@H](C(C)C)NC(=O)[C@H](CC2CCCCC2)NC(=O)[C@H](CCN)NC1=O` [Compound 1305] ({CH2CO}-[Dap]Y(Carboxymethyl)D[1Nal]Y(Carboxymethyl)[Bip]Y[Orn][dL][Dab][Cha]V[Orn]C[Dab][AEEA][Aun]-OH; thioether N-14), the IC50 was found to be 43.4 nM.

With `CC(C)C[C@@H]1NC(=O)[C@H](CCN)NC(=O)[C@@H](CC(C)C)NC(=O)[C@H](CCCN)NC(=O)[C@H](C(C)C)NC(=O)[C@H](Cc2ccc(-c3ccccc3)cc2)NC(=O)[C@H](CC(C)C)NC(=O)[C@H](Cc2c[nH]c3ccccc23)NC(=O)[C@H](CC(=O)O)NC(=O)[C@H](Cc2ccncc2)NC(=O)[C@H](Cc2ccc(OCC(=O)O)cc2)NC(=O)CSC[C@@H](C(=O)N[C@H](CCN)C(=O)NCCOCCOCC(=O)NCCCCCCCCCCC(=O)O)NC(=O)[C@H](CO)NC(=O)[C@H](C(C)C)CC1=O` [Compound 3072] ({CH2CO}-Y(Carboxymethyl)[4Pal]DWL[Bip]V[Orn][dL][Dab][X2]SC[dDab][AEEA][Aun]-OH; thioether N-13), the IC50 came to 13.5 nM.

Consider `Cc1cccc(C[C@@H]2NC(=O)[C@H](CC(=O)O)NC(=O)[C@H](Cc3ccc(OCC(=O)O)cc3)NC(=O)[C@H](CCCNC(=N)N)NC(=O)CSC[C@@H](C(=O)N[C@@H](CCN)C(=O)NCCCCCCCCCCC(=O)O)NC(=O)[C@H](CCC(N)=O)NC(=O)[C@H](C(C)(C)F)NC(=O)[C@H](CC3CCCCC3)NC(=O)[C@H](CCN)NC(=O)[C@@H](CC(C)C)NC(=O)[C@H](CCCN)NC(=O)[C@H](Cc3ccc(OCC(=O)O)cc3)NC(=O)[C@H](Cc3ccc(-c4ccccc4)cc3)NC(=O)[C@H](Cc3ccc(OCC(=O)O)cc3)NC2=O)c1` [Compound 2145] ({CH2CO}-RY(Carboxymethyl)D[Phe(3-Me)]Y(Carboxymethyl)[Bip]Y(Carboxymethyl)[Orn][dL][Dab][Cha][Val(3-F)]QC[Dab][Aun]-OH; thioether N-14), for which the IC50 came to 2.1 nM.

Regarding `Cc1cccc(C[C@@H]2NC(=O)[C@H](CC(=O)O)NC(=O)[C@H](Cc3ccc(OCC(=O)O)cc3)NC(=O)[C@H](CN)NC(=O)CSC[C@@H](C(=O)N[C@@H](CCN)C(=O)NCCCCCCCCCCC(=O)O)NC(=O)[C@@H](CCC(N)=O)NC(=O)[C@H](C(C)C)NC(=O)[C@H](CC3CCCCC3)NC(=O)[C@H](CCN)NC(=O)[C@@H](CC(C)C)NC(=O)[C@H](CCCN)NC(=O)[C@H](Cc3ccc(O)cc3)NC(=O)[C@H](Cc3ccc(-c4ccccc4)cc3)NC(=O)[C@H](Cc3ccc(O)cc3)NC2=O)c1` [Compound 2715] ({CH2CO}-[Dap]Y(Carboxymethyl)D[Phe(3-Me)]Y[Bip]Y[Orn][dL][Dab][Cha]V[dQ]C[Dab][Aun]-OH; thioether N-14), the IC50 came to 8.9 nM.

`Cc1cccc(C[C@@H]2NC(=O)[C@H](CC(=O)O)NC(=O)[C@H](Cc3ccc(OCC(=O)O)cc3)NC(=O)[C@H](CCCNC(=N)N)NC(=O)CSC[C@@H](C(=O)N[C@H](CC(N)=O)C(=O)NCCCCCCCCCCC(=O)O)NC(=O)[C@H](CCCN)NC(=O)[C@H](C(C)C)NC(=O)[C@H](CC3CCCCC3)NC(=O)[C@H](CCN)NC(=O)[C@@H](CC(C)C)NC(=O)[C@H](CCCN)NC(=O)[C@H](CCCNC(N)=O)NC(=O)[C@H](Cc3ccc(-c4ccccc4)cc3)NC(=O)[C@H](C(C)C)NC2=O)c1` [Compound 3311] ({CH2CO}-RY(Carboxymethyl)D[Phe(3-Me)]V[Bip][Cit][Orn][dL][Dab][Cha]V[Orn]C[dN][Aun]-OH; thioether N-14): the IC50 was 4.4 nM.
